{"source": "PubChem BioAssay AID256", "about": "(DTP/NCI, 2004)", "test_system": "CD2F1 mice, L1210 leukemia ip, survival T/C", "assay": "NCI In Vivo Anticancer Drug Screen. Data for tumor model L1210 Leukemia (intraperitoneal) in CD2F1 (CDF1) mice", "settings": "endpoint: mean survival time, schedule: Q01DX005 (ip), vehicle: other, higher = longer survival", "summary_of_the_method": "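Activity against a transplanted murine tumor was judged by comparing the compound group with a vehicle group. The outcome in the treated animals was divided by that in the controls.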", "note": "Toxic doses and inconclusive results are not listed."}
{"compound": "CCCCCCCCOC(=O)c1cc([N+](=O)[O-])c(Sc2ncnc3nc[nH]c23)c([N+](=O)[O-])c1", "values": [{"measurement": "T/C", "setting": "dose: 11.0 mg/kg/injection", "result": "112 % of control"}, {"measurement": "T/C", "setting": "dose: 12.5 mg/kg/injection", "result": "115 % of control"}, {"measurement": "T/C", "setting": "dose: 25.0 mg/kg/injection", "result": "172 % of control"}, {"measurement": "T/C", "setting": "dose: 50.0 mg/kg/injection", "result": "118 % of control"}, {"measurement": "T/C", "setting": "dose: 100.0 mg/kg/injection", "result": "107 % of control"}]}
